{"source": "patent US7794760B2", "about": "“Herbal mixture extract of Pleurotus eryngii, Acanthopanacis Cortex and Notoginseng Radix and a composition comprising the same for prevention and treatment of periodontitis” (Oscotec Inc., priority 2005, dated 2010)", "tested_on": "OPG (osteoprotegerin)", "assay": "OPG (osteoprotegerin) expression in MG-63 cells, OPG ELISA of supernatant", "type": "cell-based, human", "conditions": "positive control, 20 mM", "procedure": "The following three types of cells were used to investigate the effect of the herbal mixture extract or each independent herbal extract of the present invention on the proliferation of osteoblasts. A human osteosarcoma derived cell line MG-63 (ATCC No, CRL-1427) and a mouse muscle derived cell line C2C12 (ATCC No. CRL-1772) were distributed from American Type Culture Collection (ATCC, USA). The cells were cultured in DMEM (Gibco, BRL, USA) supplemented with 10% FBS (fetal bovine serum) in a 37° C. 5% CO2 incubator with 100% humidity.\nMG-63 cell culture medium having approximately at the density of 10^6 cells/20 ml was removed from 100 mm cell culture dish. The dish was washed with 5 ml of DPBS (Dulbeco's modified phosphate buffered saline). The buffer was removed and 0.5 ml of trypsin-EDTA was spread on the culture dish, which stood in a CO2 incubator for one minute to take the cells off. The cells were put in 5 ml of DMEM supplemented with 10% FBS and mixed well. […] The numbers of cells were counted by haemacytometer and then distributed into a96-well plate at the concentration of 10^4 cells/well. […]\nTo increase reliability of the test results, positive control was treated with 20 mM CaCl2 to induce 2˜5 fold higher expression of OPG than in negative control. […] OPG ELISA kit (OCT) was used and optical density was measured at 450 nm. […]", "data": [{"smiles": "[Ca+2].[Cl-].[Cl-]", "note": "[CaCl2]", "values": [{"measurement": "expression of OPG versus negative control", "result": "2˜5 fold"}]}]}
